{
  "source": "patent US8741944B2",
  "about": "“Anti-infective agents against intracellular pathogens” (priority 2007, dated 2014)",
  "key": {"RXF 393 (Renal Cancer)": {"system": "RXF 393 (Renal Cancer)", "experiment": "NCI DTP tumor cell line screen (SRB), RXF 393", "details": "RXF 393", "description": "(§1) For a typical screening experiment, cells are inoculated into 96 well microtiter plates in 100 μL at plating densities ranging from 5,000 to 40,000 cells/well depending on the doubling time of individual cell lines. After cell inoculation, the microtiter plates are incubated at 37° C., 5% CO2, 95% air and 100% relative humidity for 24 h prior to addition of experimental drugs.\n(§2) After 24 h, two plates of each cell line are fixed in situ with TCA, to represent a measurement of the cell population for each cell line at the time of drug addition (Tz). Experimental drugs are solubilized in dimethyl sulfoxide at 400-fold the desired final maximum test concentration and stored frozen prior to use. At the time of drug addition, an aliquot of frozen concentrate is thawed and diluted to twice the desired final maximum test concentration with complete medium containing 50 μg/ml gentamicin. Additional four, 10-fold or ½ log serial dilutions are made to provide a total of five drug concentrations plus control. Aliquots of 100 μl of these different drug dilutions are added to the appropriate microtiter wells already containing 100 μl of medium, resulting in the required final drug concentrations.\n(§3) Following drug addition, the plates are incubated for an additional 48 h at 37° C., 5% CO2, 95% air, and 100% relative humidity. For adherent cells, the assay is terminated by the addition of cold TCA. Cells are fixed in situ by the gentle addition of 50 μl of cold 50% (w/v) TCA (final concentration, 10% TCA) and incubated for 60 minutes at 4° C. The supernatant is discarded, and the plates are washed five times with tap water and air dried. Sulforhodamine B (SRB) solution (1001) at 0.4% (w/v) in 1% acetic acid is added to each well, and plates are incubated for 10 minutes at room temperature. After staining, unbound dye is removed by washing five times with 1% acetic acid and the plates are air dried. Bound stain is subsequently solubilized with 10 mM trizma base, and the absorbance is read on an automated plate reader at a wavelength of 515 nm. For suspension cells, the methodology is the same except that the assay is terminated by fixing settled cells at the bottom of the wells by gently adding 50 μl of 80% TCA (final concentration, 16% TCA). Using the seven absorbance measurements [time zero, (Tz), control growth, (C), and test growth in the presence of drug at the five concentration levels (Ti)], the percentage growth is calculated at each of the drug concentrations levels. Percentage growth inhibition is calculated as: [(Ti−Tz)/(C−Tz)]×100 for concentrations for which Ti>/=Tz [(Ti−Tz)/Tz]×100 for concentrations for which Ti<Tz\n(§4) Three dose response parameters are calculated for each experimental agent. […] The drug concentration resulting in total growth inhibition (TGI) is calculated from Ti=Tz. […] Values are calculated for each of these three parameters if the level of activity is reached; however, if the effect is not reached or is exceeded, the value for that parameter is expressed as greater or less than the maximum or minimum concentration tested."}, "DU-145 (Prostate Cancer)": {"system": "DU-145 (Prostate Cancer)", "experiment": "NCI DTP tumor cell line screen (SRB), DU-145", "description": "as §1, §2, §3, §4"}, "HS 578T (Breast Cancer)": {"system": "HS 578T (Breast Cancer)", "experiment": "NCI DTP tumor cell line screen (SRB), HS 578T", "description": "as §1, §2, §3, §4"}, "SW-620 (Colon Cancer)": {"system": "SW-620 (Colon Cancer)", "experiment": "NCI DTP tumor cell line screen (SRB), SW-620", "description": "as §1, §2, §3, §4"}, "PC-3 (Prostate Cancer)": {"system": "PC-3 (Prostate Cancer)", "experiment": "NCI DTP tumor cell line screen (SRB), PC-3", "description": "as §1, §2, §3, §4"}, "ACHN (Renal Cancer)": {"system": "ACHN (Renal Cancer)", "experiment": "NCI DTP tumor cell line screen (SRB), ACHN", "description": "as §1, §2, §3, §4"}, "[1]": {"system": "HOP-92 (Non-Small Cell Lung Cancer)", "experiment": "NCI DTP tumor cell line screen (SRB), HOP-92", "description": "as §1, §2, §3, §4"}, "[2]": {"system": "NCI-H23 (Non-Small Cell Lung Cancer)", "description": "as §1, §2, §3, §4"}, "OVCAR-5 (Ovarian Cancer)": {"system": "OVCAR-5 (Ovarian Cancer)", "experiment": "NCI DTP tumor cell line screen (SRB), OVCAR-5", "description": "as §1, §2, §3, §4"}},
  "note": "Read-outs that look alike come from different tables or passages of the source.",
  "data": [
    {"compound": "NCC(=O)Nc1ccc(-n2nc(C(F)(F)F)cc2-c2ccc3c(ccc4ccccc43)c2)cc1", "note": "[Compound 70, 2-Amino-N-{4-[5-(2-phenanthrenyl)-3-(trifluoromethyl)-1H-pyrazol-1-yl]-phenyl}-acetamide]", "values": [
      {"measurement": "Mean Optical Densities", "setting": "RXF 393 (Renal Cancer); Log10 Concentration −4.0", "value": 0.441},
      {"measurement": "Mean Optical Densities", "setting": "RXF 393 (Renal Cancer); Log10 Concentration −5.0", "value": 0.177},
      {"measurement": "Percent Growth", "setting": "RXF 393 (Renal Cancer); Log10 Concentration −5.0", "value": "−56", "unit": "%"},
      {"measurement": "Mean Optical Densities", "setting": "RXF 393 (Renal Cancer); Log10 Concentration −6.0", "value": 0.628},
      {"measurement": "Percent Growth", "setting": "RXF 393 (Renal Cancer); Log10 Concentration −6.0", "value": 56, "unit": "%"},
      {"measurement": "Mean Optical Densities", "setting": "RXF 393 (Renal Cancer); Log10 Concentration −7.0", "value": 0.700},
      {"measurement": "Mean Optical Densities", "setting": "RXF 393 (Renal Cancer); Log10 Concentration −8.0", "value": 0.766},
      {"measurement": "TGI", "setting": "DU-145 (Prostate Cancer)", "value": "3.47E−06"},
      {"measurement": "Mean Optical Densities", "setting": "DU-145 (Prostate Cancer); Log10 Concentration −4.0", "value": 0.132},
      {"measurement": "Mean Optical Densities", "setting": "DU-145 (Prostate Cancer); Log10 Concentration −5.0", "value": 0.078},
      {"measurement": "Percent Growth", "setting": "DU-145 (Prostate Cancer); Log10 Concentration −5.0", "value": "−76", "unit": "%"},
      {"measurement": "Mean Optical Densities", "setting": "DU-145 (Prostate Cancer); Log10 Concentration −6.0", "value": 0.895},
      {"measurement": "Percent Growth", "setting": "DU-145 (Prostate Cancer); Log10 Concentration −6.0", "value": 90, "unit": "%"},
      {"measurement": "Mean Optical Densities", "setting": "DU-145 (Prostate Cancer); Log10 Concentration −7.0", "value": 1.018},
      {"measurement": "Percent Growth", "setting": "DU-145 (Prostate Cancer); Log10 Concentration −7.0", "value": 109, "unit": "%"},
      {"measurement": "Mean Optical Densities", "setting": "DU-145 (Prostate Cancer); Log10 Concentration −8.0", "value": 0.993},
      {"measurement": "Percent Growth", "setting": "DU-145 (Prostate Cancer); Log10 Concentration −8.0", "value": 105, "unit": "%"},
      {"measurement": "TGI", "setting": "HS 578T (Breast Cancer)", "value": "5.25E−06"},
      {"measurement": "Mean Optical Densities", "setting": "HS 578T (Breast Cancer); Log10 Concentration −4.0", "value": 0.333},
      {"measurement": "Mean Optical Densities", "setting": "HS 578T (Breast Cancer); Log10 Concentration −5.0", "value": 0.351},
      {"measurement": "Mean Optical Densities", "setting": "HS 578T (Breast Cancer); Log10 Concentration −6.0", "value": 1.110},
      {"measurement": "Mean Optical Densities", "setting": "HS 578T (Breast Cancer); Log10 Concentration −7.0", "value": 1.179},
      {"measurement": "Mean Optical Densities", "setting": "HS 578T (Breast Cancer); Log10 Concentration −8.0", "value": 1.221},
      {"measurement": "TGI", "setting": "SW-620 (Colon Cancer)", "value": "4.23E−06"},
      {"measurement": "Mean Optical Densities", "setting": "SW-620 (Colon Cancer); Log10 Concentration −4.0", "value": 0.136},
      {"measurement": "Mean Optical Densities", "setting": "SW-620 (Colon Cancer); Log10 Concentration −5.0", "value": 0.127},
      {"measurement": "Percent Growth", "setting": "SW-620 (Colon Cancer); Log10 Concentration −5.0", "value": "−32", "unit": "%"},
      {"measurement": "Mean Optical Densities", "setting": "SW-620 (Colon Cancer); Log10 Concentration −6.0", "value": 0.736},
      {"measurement": "Percent Growth", "setting": "SW-620 (Colon Cancer); Log10 Concentration −6.0", "value": 54, "unit": "%"},
      {"measurement": "Mean Optical Densities", "setting": "SW-620 (Colon Cancer); Log10 Concentration −7.0", "value": 1.198},
      {"measurement": "Percent Growth", "setting": "SW-620 (Colon Cancer); Log10 Concentration −7.0", "value": 100, "unit": "%"},
      {"measurement": "Mean Optical Densities", "setting": "SW-620 (Colon Cancer); Log10 Concentration −8.0", "value": 1.197},
      {"measurement": "Percent Growth", "setting": "SW-620 (Colon Cancer); Log10 Concentration −8.0", "value": 100, "unit": "%"},
      {"measurement": "TGI", "setting": "PC-3 (Prostate Cancer)", "value": "2.38E−06"},
      {"measurement": "Mean Optical Densities", "setting": "PC-3 (Prostate Cancer); Log10 Concentration −4.0", "value": 0.108},
      {"measurement": "Mean Optical Densities", "setting": "PC-3 (Prostate Cancer); Log10 Concentration −5.0", "value": 0.055},
      {"measurement": "Percent Growth", "setting": "PC-3 (Prostate Cancer); Log10 Concentration −5.0", "value": "−77", "unit": "%"},
      {"measurement": "Mean Optical Densities", "setting": "PC-3 (Prostate Cancer); Log10 Concentration −6.0", "value": 0.593},
      {"measurement": "Percent Growth", "setting": "PC-3 (Prostate Cancer); Log10 Concentration −6.0", "value": 47, "unit": "%"},
      {"measurement": "Mean Optical Densities", "setting": "PC-3 (Prostate Cancer); Log10 Concentration −7.0", "value": 0.763},
      {"measurement": "Percent Growth", "setting": "PC-3 (Prostate Cancer); Log10 Concentration −7.0", "value": 69, "unit": "%"},
      {"measurement": "Mean Optical Densities", "setting": "PC-3 (Prostate Cancer); Log10 Concentration −8.0", "value": 0.910},
      {"measurement": "Percent Growth", "setting": "PC-3 (Prostate Cancer); Log10 Concentration −8.0", "value": 89, "unit": "%"},
      {"measurement": "TGI", "setting": "ACHN (Renal Cancer)", "value": "3.45E−06"},
      {"measurement": "Mean Optical Densities", "setting": "ACHN (Renal Cancer); Log10 Concentration −4.0", "value": 0.313},
      {"measurement": "Mean Optical Densities", "setting": "ACHN (Renal Cancer); Log10 Concentration −5.0", "value": 0.150},
      {"measurement": "Percent Growth", "setting": "ACHN (Renal Cancer); Log10 Concentration −5.0", "value": "−60", "unit": "%"},
      {"measurement": "Mean Optical Densities", "setting": "ACHN (Renal Cancer); Log10 Concentration −6.0", "value": 0.829},
      {"measurement": "Percent Growth", "setting": "ACHN (Renal Cancer); Log10 Concentration −6.0", "value": 70, "unit": "%"},
      {"measurement": "Mean Optical Densities", "setting": "ACHN (Renal Cancer); Log10 Concentration −7.0", "value": 1.037},
      {"measurement": "Percent Growth", "setting": "ACHN (Renal Cancer); Log10 Concentration −7.0", "value": 102, "unit": "%"},
      {"measurement": "Mean Optical Densities", "setting": "ACHN (Renal Cancer); Log10 Concentration −8.0", "value": 0.985},
      {"measurement": "Percent Growth", "setting": "ACHN (Renal Cancer); Log10 Concentration −8.0", "value": 94, "unit": "%"},
      {"measurement": "TGI", "setting": "[1]", "value": "3.07E−06"},
      {"measurement": "Mean Optical Densities", "setting": "[1]; Log10 Concentration −4.0", "value": 0.267},
      {"measurement": "Mean Optical Densities", "setting": "[1]; Log10 Concentration −5.0", "value": 0.095},
      {"measurement": "Percent Growth", "setting": "[1]; Log10 Concentration −5.0", "value": "−91", "unit": "%"},
      {"measurement": "Mean Optical Densities", "setting": "[1]; Log10 Concentration −6.0", "value": 1.465},
      {"measurement": "Percent Growth", "setting": "[1]; Log10 Concentration −6.0", "value": 87, "unit": "%"},
      {"measurement": "Mean Optical Densities", "setting": "[1]; Log10 Concentration −7.0", "value": 1.474},
      {"measurement": "Percent Growth", "setting": "[1]; Log10 Concentration −7.0", "value": 89, "unit": "%"},
      {"measurement": "Mean Optical Densities", "setting": "[1]; Log10 Concentration −8.0", "value": 1.509},
      {"measurement": "Percent Growth", "setting": "[1]; Log10 Concentration −8.0", "value": 96, "unit": "%"},
      {"measurement": "TGI", "setting": "[2]", "value": "2.87E−06"},
      {"measurement": "Mean Optical Densities", "setting": "[2]; Log10 Concentration −4.0", "value": 0.156},
      {"measurement": "Mean Optical Densities", "setting": "[2]; Log10 Concentration −5.0", "value": 0.097},
      {"measurement": "Percent Growth", "setting": "[2]; Log10 Concentration −5.0", "value": "−79", "unit": "%"},
      {"measurement": "Mean Optical Densities", "setting": "[2]; Log10 Concentration −6.0", "value": 1.255},
      {"measurement": "Percent Growth", "setting": "[2]; Log10 Concentration −6.0", "value": 67, "unit": "%"},
      {"measurement": "Mean Optical Densities", "setting": "[2]; Log10 Concentration −7.0", "value": 1.673},
      {"measurement": "Percent Growth", "setting": "[2]; Log10 Concentration −7.0", "value": 102, "unit": "%"},
      {"measurement": "Mean Optical Densities", "setting": "[2]; Log10 Concentration −8.0", "value": 1.672},
      {"measurement": "Percent Growth", "setting": "[2]; Log10 Concentration −8.0", "value": 101, "unit": "%"},
      {"measurement": "TGI", "setting": "OVCAR-5 (Ovarian Cancer)", "value": "3.32E−06"}
    ]}
  ]
}
